Among the test systems are A498 renal; COLO 205 colon; EKVX NSCLC; MALME-3M melanoma; OVCAR-5 ovarian; OVCAR-8 ovarian; RXF 393 renal; SF-539 CNS; SK-OV-3 ovarian; UACC-62 melanoma.
Holding throughout (test): inhibition of tumour cell growth, NCI panel, 48 h

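96-well plates; 48 h exposure; 5 concentrations. Endpoints by linear interpolation between flanking doses. Not reached: highest tested concentration assigned. At the GI50, growth is halved. TGI denotes the concentration required for complete inhibition of growth.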

Turning to `COc1cc(C2=N/C(=C/c3cccs3)C(=O)O2)cc(OC)c1OC`, the TGI with A498 renal, in the experiment on COLO 205 colon, in the experiment on EKVX NSCLC, with MALME-3M melanoma, in the experiment on OVCAR-5 ovarian and in the experiment with OVCAR-8 ovarian was greater than 100 µM each time. Moreover, the TGI in the experiment on RXF 393 renal, in the experiment on SF-539 CNS, in the experiment on SK-OV-3 ovarian and in the experiment with UACC-62 melanoma was greater than 100 µM each time.

With `CSc1snc2sc3c(Cl)nnnc3c12`, the TGI was determined as 28.7 µM with A498 renal; 24 µM with COLO 205 colon; 38.6 µM in the experiment on EKVX NSCLC; 29.3 µM in the experiment with MALME-3M melanoma; 31 µM with OVCAR-5 ovarian; 21 µM in the experiment on OVCAR-8 ovarian. The TGI with RXF 393 renal is 25.1 µM; in the experiment with SF-539 CNS, 32.1 µM; in the experiment with SK-OV-3 ovarian, 33.3 µM; in the experiment with UACC-62 melanoma, 29.2 µM.

In the case of `O=C(N/N=C1\C(=O)N(c2nccs2)C(=O)C(=O)C1c1nc2ccccc2s1)c1ccccc1O` (stereo not given), the TGI in the experiment with A498 renal, with COLO 205 colon, in the experiment on EKVX NSCLC, in the experiment with MALME-3M melanoma, in the experiment on OVCAR-5 ovarian and in the experiment on OVCAR-8 ovarian was greater than 100 µM in each case. Moreover, the TGI in the experiment on RXF 393 renal, with SF-539 CNS, in the experiment with SK-OV-3 ovarian and with UACC-62 melanoma was greater than 100 µM each time.

For `COc1cc(-c2csc(NC(=O)Nc3ccc(C(F)(F)F)cc3)n2)cc(OC)c1OC`, the GI50 was 1.99 µM with A498 renal; 2.1 µM in the experiment with COLO 205 colon; 2.15 µM with EKVX NSCLC; 1.85 µM in the experiment with MALME-3M melanoma; 2.64 µM with OVCAR-5 ovarian; 2.97 µM with OVCAR-8 ovarian. The GI50 in the experiment with RXF 393 renal is 2.18 µM; with SF-539 CNS it was 2.28 µM; in the experiment on SK-OV-3 ovarian it was 2.68 µM; with UACC-62 melanoma it was 1.99 µM. In addition, the TGI in the experiment with A498 renal turned out to be 5.09 µM; in the experiment with COLO 205 colon it was 4.5 µM; with EKVX NSCLC, 10.2 µM; with MALME-3M melanoma it was 4.94 µM; in the experiment on OVCAR-5 ovarian, 9.9 µM; with OVCAR-8 ovarian it was 10.5 µM. Moreover, the TGI is 5.89 µM in the experiment on RXF 393 renal, 6.68 µM in the experiment on SF-539 CNS, 8.33 µM with SK-OV-3 ovarian and 5.38 µM in the experiment on UACC-62 melanoma.

With `CN1CCN(c2ccc(NC(=O)c3cncnc3Nc3ccc(OCc4ccccn4)c(Cl)c3)cc2)CC1`, the GI50 in the experiment with A498 renal is 1.48 µM; in the experiment on COLO 205 colon, 1.41 µM; in the experiment on EKVX NSCLC, 6.25 µM; in the experiment with MALME-3M melanoma it was 0.886 µM; in the experiment on OVCAR-5 ovarian it was 3.5 µM; with OVCAR-8 ovarian it was 5.4 µM. Also, the GI50 in the experiment on RXF 393 renal is 1.93 µM; in the experiment with SF-539 CNS, 1.09 µM; in the experiment on SK-OV-3 ovarian it was 4.79 µM; in the experiment on UACC-62 melanoma, 0.695 µM. Besides, the TGI amounted to 6.98 µM in the experiment with A498 renal; 6.19 µM with COLO 205 colon; 14.6 µM with EKVX NSCLC; 3.69 µM in the experiment with MALME-3M melanoma; 9.11 µM in the experiment on OVCAR-5 ovarian; 15.3 µM with OVCAR-8 ovarian. Also, the TGI came to 6.71 µM with RXF 393 renal, 3.64 µM with SF-539 CNS, 11.2 µM with SK-OV-3 ovarian and 1.42 µM with UACC-62 melanoma.

The record behind these values is PubChem BioAssay (NCI).
